{"source": "patent US20240382475A1", "about": "“Quinazoline Derivative, Or Preparation Method Therefor And Use Thereof” (Zhejiang Hisun Pharmaceutical Co., Ltd., priority 2021, published 2024)", "system": "human lung cancer NCI-H2122 subcutaneous xenotransplanted tumor", "assay": "Pharmacodynamic evaluation in nude mouse subcutaneous xenotransplanted model of human lung cancer NCI-H2122", "type": "in vivo, Balb/c nude mouse", "method": "The anti-tumor effect and safety of compound 11 of the present invention were evaluated in a Balb/c nude mouse animal model of subcutaneous xenotransplanted NCI-H2122.\nBALB/c; nude mice, female, 6-7 weeks old (the age of mice when tumor cells were inoculated), purchased from Jiangsu Jicui Yaokang Biotechnology Co., Ltd.\nThe solvent control group was given DMSO:castor oil:5% glucose injection=20:10:70 (v/v/v).\n(§1) AMG-510: an appropriate amount of AMG-510 was weighed, and an appropriate amount of DMSO:castor oil:5% glucose injection=20:10:70 (v/v/v) was added. After the above mixture was fully dissolved, an appropriate amount of 1 M hydrochloric acid was added, vortexed and mixed to prepare a solution with a concentration of 3 mg/mL.\nas §1, with “Compound 11:” for “AMG-510:”, “compound 11” for “AMG-510”\nH2122 cells were cultured in 1640 culture medium containing 10% fetal bovine serum and 1% penicillin-streptomycin-amphotericin B solution. H2122 cells in the exponential growth phase were collected and resuspended in matrigel solution (matrigel:PBS=1:1 (V/V)) to a suitable concentration for subcutaneous tumor inoculation in nude mice.\nFemale Balb/c nude mice were subcutaneously inoculated with about 3.0×10^6H2122 cells on the right sides of their backs. When the average volume of the tumors reaches about 150-200 mm^3, the mice were randomly divided according to the tumor sizes with 6 mice in each group.\n• Group 1 (G1), solvent control group; • Group 2 (G2), AMG-510 was given by intragastric administration at a dose of 30 mg/kg; • Group 3 (G3), Example 11 was given by intragastric administration at a dose of 30 mg/kg; • Group 4 (G4), AMG-510 and Example 11 were administered in combination, and the dosages were respectively: AMG-510, 30 mg/kg (QD); Example 11, 30 mg/kg (QD).\nAfter tumor inoculation, routine monitoring included the effects of tumor growth and treatment on the normal behaviors of the animals, specifically the mobility, feeding and drinking, weight gain or loss, eyes, coat and other abnormalities of the experimental animals.\nCalculation formulae for a relative tumor volume (RTV), a relative tumor proliferation rate (T/C) and a tumor inhibition percentage (IR) were as follows: • (1) TV (tumor volume)=½×a×b^2, wherein a and b represent the length and width of the tumor respectively; • (2) RTV (relative tumor volume)=Vt/Vo, wherein Vo is the tumor volume measured at the time of administration when grouping (i.e. do), and Vt is the tumor volume at each measurement; • (3) relative tumor proliferation rate T/C (%)=TRTV/CRTV×100%, wherein TRTV is the RTV of the treatment group and CRTV is the RTV of the control group; • (4) Tumor growth inhibition rate TGI(%)=(1−T/C)×100%; wherein, T and C are the relative tumor volumes of the treatment group and the control group at a specific time point. • (5) IR (%)=(1−TWt/TWc)×100%, wherein, TWt is the tumor weight of the treatment group and TWc is the tumor weight of the control group. The anti-tumor evaluation criteria are (cytotoxic drugs): T/C(%)>40% is invalid; T/C(%)≤40%, and after statistical processing, P<0.05 is effective.", "key": {"[1]": {"conditions": "16 days after administration, 30 mg/kg each agent"}, "[2]": {"conditions": "end of the experiment, 30 mg/kg each agent"}}}
{"compound": "COc1cc2nc(C)nc(N[C@H](C)c3cccc(C#N)c3C)c2cc1N1CCC(C)(O)CC1", "note": "[Compound 11, (R)-3-(1-((6-(4-hydroxy-4-methylpiperidin-1-yl)-7-methoxy-2-methylquinazolin-4-yl)amino)ethyl)-2-methylbenzonitrile]", "values": [{"measurement": "Relative tumor volume (x ± S)", "setting": "[1]", "value": "4.03 ± 0.67"}, {"measurement": "TGI %", "setting": "[1]", "value": 20.7, "unit": "%"}, {"measurement": "Tumor volume (x ± S)", "setting": "Day 0 after administration, 30 mg/kg each agent, intragastric", "value": "199 ± 18", "unit": "mm^3"}, {"measurement": "Tumor volume (x ± S)", "setting": "Day 3 after administration, 30 mg/kg each agent, intragastric", "value": "329 ± 36", "unit": "mm^3"}, {"measurement": "Tumor volume (x ± S)", "setting": "Day 7 after administration, 30 mg/kg each agent, intragastric", "value": "460 ± 53", "unit": "mm^3"}, {"measurement": "Tumor volume (x ± S)", "setting": "Day 10 after administration, 30 mg/kg each agent, intragastric", "value": "551 ± 60", "unit": "mm^3"}, {"measurement": "Tumor volume (x ± S)", "setting": "Day 14 after administration, 30 mg/kg each agent, intragastric", "value": "704 ± 88", "unit": "mm^3"}, {"measurement": "Tumor volume (x ± S)", "setting": "Day 16 after administration, 30 mg/kg each agent, intragastric", "value": "757 ± 90", "unit": "mm^3"}, {"measurement": "Tumor volume (x ± S)", "setting": "Table 11, 16 days after administration, 30 mg/kg each agent, in mm³", "value": "757 ± 90"}, {"measurement": "Inhibition rate of tumor weight (%)", "setting": "[2]", "value": 16.8, "unit": "%"}, {"measurement": "Tumor weight (g) (x ± S)", "setting": "[2]", "value": "0.6283 ± 0.0663", "unit": "g"}, {"measurement": "anti-tumor activity (conclusion in words)", "setting": "under the combination with AMG-510, KRAS-G12C inhibitor non-sensitive cell line NCI-H2122", "value": "good anti-tumor activity"}]}
